Measured values published in patent US20220324835A1 (Nurix Therapeutics, Inc., priority 2018, published 2022).
Where a name gives a salt, the structure may show the parent alone. Read-outs that look alike come from different tables or passages of the source.

What was measured:
[1] = tested on: T-cell; assay: CD25 cell surface staining on T-cells stimulated with anti-CD3 antibody alone (Biological Example 2); format: cell-based, human; settings: T-cell, read-out: CD25 staining Anti-CD3 stimulation; for fold induction at 1 µM: 1 μM Cbl-b inhibitor; for fold induction at 8 µM: 8 μM Cbl-b inhibitor
[2] = biological target: Cbl-b (residues 36-427) (Homo sapiens, UniProt Q13191); assay: Cbl-b binding assay (SPR, Biacore T200); settings: 20° C., 1:1 binding model
Sequence of Cbl-b (residues 36-427) (Q13191 36-427): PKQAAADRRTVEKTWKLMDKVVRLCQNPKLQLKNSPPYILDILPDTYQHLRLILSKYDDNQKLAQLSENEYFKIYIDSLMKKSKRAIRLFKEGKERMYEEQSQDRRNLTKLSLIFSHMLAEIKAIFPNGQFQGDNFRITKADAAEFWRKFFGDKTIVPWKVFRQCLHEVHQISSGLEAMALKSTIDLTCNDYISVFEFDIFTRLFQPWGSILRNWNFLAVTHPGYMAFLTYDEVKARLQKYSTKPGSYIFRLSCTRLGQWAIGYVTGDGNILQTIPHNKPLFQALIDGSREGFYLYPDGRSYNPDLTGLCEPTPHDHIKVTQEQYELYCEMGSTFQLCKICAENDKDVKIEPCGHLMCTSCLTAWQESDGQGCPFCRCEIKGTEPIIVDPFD
Outline: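 NeutrAvidin capture chip, 20° C; 50 s injections at 50 μl/min, 90-180 s dissociation; 0.3 M NaCl regeneration. Asterisked column: 50 mM NaCl buffer and 30 nM Src kinase in place of 100 mM NaCl and 60 nM Src kinase. 1:1 fit.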

[3] = fold change over baseline, primary human total T-cells
[4] = Homo sapiens, fold change over baseline (anti-CD3/anti-CD28 stimulated T-cells without inhibitor)

Structure (SMILES)	fold induction at 1 µM [1, 3]	fold induction at 8 µM [1, 3]	Kd [2] [nM]	fold induction at 1 µM [1, 4]
C[C@H](Cc1nncn1C)c1cccc(N2Cc3c(cc(C(=O)N4CC[C@H](O)C4)cc3C(F)(F)F)C2=O)c1 [Compound 274, 6-((S)-3-hydroxypyrrolidine-1-carbonyl)-2-(3-((R)-1-(4-methyl-4H-1,2,4-triazol-3-yl)propan-2-yl)phenyl)-4-(trifluoromethyl)isoindolin-1-one]	0.801 to 1	> 1	< 100	
C[C@H](Cc1nncn1C)c1cccc(N2Cc3c(cc(C(=O)N4C[C@@H](O)C[C@H]4C)cc3C(F)(F)F)C2=O)c1 [Compound 275, 6-((2R,4S)-4-hydroxy-2-methylpyrrolidine-1-carbonyl)-2-(3-((R)-1-(4-methyl-4H-1,2,4-triazol-3-yl)propan-2-yl)phenyl)-4-(trifluoromethyl)isoindolin-1-one]	0.801 to 1	> 1	< 100	
C[C@H](Cc1nncn1C)c1cccc(N2Cc3c(cc(C(=O)N4CC(O)C4)cc3C(F)(F)F)C2=O)c1 [Compound 276, (R)-6-(3-hydroxyazetidine-1-carbonyl)-2-(3-(1-(4-methyl-4H-1,2,4-triazol-3-yl)propan-2-yl)phenyl)-4-(trifluoromethyl)isoindolin-1-one]	0.801 to 1	> 1	301 to 1000	
C[C@H](Cc1nncn1C)c1cccc(N2Cc3c(cc(C(=O)N4CC[C@H](O)C4)cc3C3CC3)C2=O)c1 [Compound 277, 4-cyclopropyl-6-((S)-3-hydroxypyrrolidine-1-carbonyl)-2-(3-((R)-1-(4-methyl-4H-1,2,4-triazol-3-yl)propan-2-yl)phenyl)isoindolin-1-one]	0.801 to 1	> 1	100 to 300	
Cn1cnnc1CC1(c2cccc(N3Cc4c(cccc4C(F)(F)F)C3=O)c2)CC1 [Compound 299, 2-(3-(1-((4-methyl-4H-1,2,4-triazol-3-yl)methyl)cyclopropyl)phenyl)-4-(trifluoromethyl)isoindolin-1-one]	> 1	> 1	1000 to 3000	
Cn1cnnc1CC(C)(C)c1cccc(N2Cc3c(cccc3C(F)(F)F)C2=O)c1 [Compound 300, 2-(3-(2-methyl-1-(4-methyl-4H-1,2,4-triazol-3-yl)propan-2-yl)phenyl)-4-(trifluoromethyl)isoindolin-1-one]	0.801 to 1	> 1	100 to 300	
Cn1cnnc1CC1(c2cccc(N3Cc4c(cccc4C(F)(F)F)C3=O)c2)COC1 [Compound 301, 2-[3-[3-[(4-methyl-1,2,4-triazol-3-yl)methyl]oxetan-3-yl]phenyl]-4-(trifluoromethyl)isoindolin-1-one]	0.801 to 1	> 1	301 to 1000	
C[C@H](Sc1nncn1C)c1cccc(NC(=O)c2cc3cc(OCC(=O)NCCN)ccc3cn2)c1 [Compound 311, 6-[2-(2-aminoethylamino)-2-oxo-ethoxy]-N-[3-[(1S)-1-[(4-methyl-1,2,4-triazol-3-yl)sulfanyl]ethyl]phenyl]isoquinoline-3-carboxamide hydrochloride]	0.601 to 0.8	0.601 to 0.8	100 to 300	
Cc1cnnn1C[C@@H](C)c1cccc(NC(=O)c2cccc(C(F)(F)F)n2)c1 [Compound 312a, (S)-N-(3-(1-(5-methyl-1H-1,2,3-triazol-1-yl)propan-2-yl)phenyl)-6-(trifluoromethyl)picolinamide]	0.601 to 0.8	0.801 to 1	301 to 1000	
C[C@H](Cc1nncn1C)c1cccc(NC(=O)c2nc3c(C4CC4)cccc3[nH]2)c1 [Compound 319, 4-cyclopropyl-N-[3-[(1R)-1-methyl-2-(4-methyl-1,2,4-triazol-3-yl)ethyl]phenyl]-1H-benzimidazole-2-carboxamide]	0.601 to 0.8	0.801 to 1	100 to 300	
C[C@H](Cc1nncn1C)c1cccc(NC(=O)c2cc(C(C)(C)O)cc(C(F)(F)F)n2)c1 [Compound 320, 4-(2-hydroxypropan-2-yl)-N-[3-[(2R)-1-(4-methyl-4H-1,2,4-triazol-3-yl)propan-2-yl]phenyl]-6-(trifluoromethyl)pyridine-2-carboxamide]	0.801 to 1	> 1	100 to 300	
C[C@H](Cc1nncn1C)c1cccc(NC(=O)c2cccc(C(C)(C)C)n2)c1 [Compound 321, (R)-6-(Tert-butyl)-N-(3-(1-(4-methyl-4H-1,2,4-triazol-3-yl)propan-2-yl)phenyl)picolinamide]	0.801 to 1	> 1	100 to 300	
CC1CCc2c1n[nH]c2C(=O)Nc1cccc([C@H](C)Cc2nncn2C)c1 (stereo partly drawn) [Compound 323, 6-Methyl-N-(3-((R)-1-(4-methyl-4H-1,2,4-triazol-3-yl)propan-2-yl)phenyl)-2,4,5,6-tetrahydrocyclopenta[c]pyrazole-3-carboxamide]	0.601 to 0.8	> 1	100 to 300	
Cc1cc(C(=O)Nc2cccc([C@H](C)Cc3nocc3C)c2)nc(C2CC2)n1 [Compound 330, (R)-2-cyclopropyl-6-methyl-N-(3-(1-(4-methylisoxazol-3-yl)propan-2-yl)phenyl)pyrimidine-4-carboxamide]	0.801 to 1	> 1	301 to 1000	
C[C@H](Cc1nncn1C)c1cc(NC2COC2)nc(N2Cc3c(cccc3C(F)(F)F)C2=O)c1 [Compound 352, 2-{4-[(2R)-1-(4-methyl-4H-1,2,4-triazol-3-yl)propan-2-yl]-6-[(oxetan-3-yl)amino]pyridin-2-yl}-4-(trifluoromethyl)-2,3-dihydro-1H-isoindol-1-one]	0.801 to 1	> 1	100 to 300	
CC(C)Nc1cc([C@H](C)Cc2nncn2C)cc(N2Cc3c(cccc3C(F)(F)F)C2=O)n1 [Compound 353, 2-{4-[(2R)-1-(4-methyl-4H-1,2,4-triazol-3-yl)propan-2-yl]-6-[(propan-2-yl)amino]pyridin-2-yl}-4-(trifluoromethyl)-2,3-dihydro-1H-isoindol-1-one]	0.801 to 1	> 1	< 100	
CCOc1cc([C@H](C)Cc2nncn2C)cc(N2Cc3c(cccc3C(F)(F)F)C2=O)n1 [Compound 358, (R)-2-(6-ethoxy-4-(1-(4-methyl-4H-1,2,4-triazol-3-yl)propan-2-yl)pyridin-2-yl)-4-(trifluoromethyl)isoindolin-1-one]	> 1	> 1	< 100	
CCNc1cc([C@H](C)Cc2nncn2C)cc(N2Cc3c(cccc3C(F)(F)F)C2=O)n1 [Compound 360, (R)-2-(6-(ethylamino)-4-(1-(4-methyl-4H-1,2,4-triazol-3-yl)propan-2-yl)pyridin-2-yl)-4-(trifluoromethyl)isoindolin-1-one]	> 1	> 1	< 100	
CNc1cc([C@H](C)Cc2nncn2C)cc(N2Cc3c(cccc3C(F)(F)F)C2=O)n1 [Compound 363, (R)-2-(4-(1-(4-methyl-4H-1,2,4-triazol-3-yl)propan-2-yl)-6-(methylamino)pyridin-2-yl)-4-(trifluoromethyl)isoindolin-1-one]	0.601 to 0.8	> 1	< 100	
C[C@H](c1cc2c(c(C(F)(F)F)c1)CN(c1cccc(C3(C(F)(F)c4nncn4C)COC3)c1)C2=O)N1CC[C@H](F)C1 [Example 571, 2-(3-(3-(difluoro(4-methyl-4H-1,2,4-triazol-3-yl)methyl)oxetan-3-yl)phenyl)-6-((R)-1-((S)-3-fluoropyrrolidin-1-yl)ethyl)-4-(trifluoromethyl)isoindolin-1-one]			< 100	> 1
C[C@H](c1cc2c(c(C(F)(F)F)c1)CN(c1cccc(C3([C@@H](F)c4nncn4C)COC3)c1)C2=O)N1CCC2(CC2)C1 [Example 576, 6-((R)-1-(5-azaspiro[2.4]heptan-5-yl)ethyl)-2-(3-(3-((R)-fluoro(4-methyl-4H-1,2,4-triazol-3-yl)methyl)oxetan-3-yl)phenyl)-4-(trifluoromethyl)isoindolin-1-one]			< 100	> 1
Cn1cnnc1CC1(c2cccc(N3Cc4c(cc(CN5CCC(C)(F)CC5)cc4C(F)(F)F)C3=O)c2)COC1 [Example 620, 6-((4-fluoro-4-methylpiperidin-1-yl)methyl)-2-(3-(3-((4-methyl-4H-1,2,4-triazol-3-yl)methyl)oxetan-3-yl)phenyl)-4-(trifluoromethyl)isoindolin-1-one]			< 100	> 1
Cn1cnnc1[C@@H](F)C1(c2cccc(N3Cc4c(cc(CN5CCC(F)CC5)cc4C(F)(F)F)C3=O)c2)COC1 [Example 670a, (S)-2-(3-(3-(fluoro(4-methyl-4H-1,2,4-triazol-3-yl)methyl)oxetan-3-yl)phenyl)-6-((4-fluoropiperidin-1-yl)methyl)-4-(trifluoromethyl)isoindolin-1-one]			< 100	> 1
Cn1cnnc1[C@H](F)C1(c2cccc(N3Cc4c(cc(CN5CCC(F)CC5)cc4C(F)(F)F)C3=O)c2)COC1 [Example 670b, (R)-2-(3-(3-(fluoro(4-methyl-4H-1,2,4-triazol-3-yl)methyl)oxetan-3-yl)phenyl)-6-((4-fluoropiperidin-1-yl)methyl)-4-(trifluoromethyl)isoindolin-1-one]			< 100	> 1
